# Like-named read-outs stand apart in the source and are kept apart here.
# How the values were obtained:
# [1] = test system: drug-sensitive yeast strains (rad27 mutants, wild-type); test: Yeast dilution assay, survival after MMS or high temperature; conditions: rad27 mutants lacking FEN1, serial 10 fold dilutions
# MCF7 breast cancer cells = test: Clonogenic assay, combination with CPT or MK4827; type: cell-based, human; conditions: for IC50: Homo sapiens, MCF7
# Method: The survival rate of the cells treated with various concentrations of CPT was calculated by normalizing the number of colonies to that of the cells without CPT treatment. The survival rate of the cells without CPT treatment was arbitrarily set as 1. […] The IC50 and combination index (CI) was calculated using the Compusyn program. FIG. 7B: Representative inhibition curve of varying concentrations of C5 from 0 to 10 μM in combination with MK4827 (0 or 1 μM).
# To test our hypothesis that inhibition of DNA2 synergizes with other chemotherapeutic agents, we treated cells with CPT and C5.
# A549 cells = test: DNA fiber assay, replication fork restart; conditions: for percentage of restarting forks: 20 μM C5
# [2] = test system: BRCA2- or BOD1L-depleted or mock transfected U2OS cells; test: P-RPA foci in fork protection defective cells after HU; type: cell-based, human
# Excerpt: Fork protection is a DNA break repair-independent pathway suppressing genomic instability (Schlacher et al, 2011; Schlacher et al, 2012). The fork protection pathway is mediated by BRCA2, BRCA1, RAD51, members of the Fanconi anemia pathway, and […]. In the absence of any of these factors, excessive nascent DNA degradation occurs at stalled replication forks. This degradation is prevented if the end-resection protein MRE11 is inhibited either by siRNA knockdown or by inhibition of MRE11 nuclease by the small molecule mirin (Schlacher et al., 2011; Schlacher et al., 2012). MRE11 functions upstream of DNA2 in resection of double-strand breaks, and DNA2, in addition to MRE11 has been implicated in over-resection at stalled replication forks in BOD1L and in RAD51 impaired cells, since over-resection is suppressed by knockdown of DNA2 in the absence of BOD1L or in a RAD51 mutant cell line (Higgs et al., 2015; Wang et al., 2015). […] . After treatment of the BRCA2- or BOD1L-depleted U2OS cells with HU, which stalls forks but is not expected to produce DSBs (Petermann et al., 2010; Schlacher et al., 2011; Schlacher et al., 2012), and which are fork protection defective, we observed a dramatic increase in P-RPA positive cells indicative of nascent DNA degradation upon treatment with HU (FIGS. 6C and FIG. 12B). […] . The potency of C5 was estimated by comparing the effect of mirin, the MRE11 inhibitor, in the same experiment. […] . Our results are in keeping with previous work showing that knockdown of DNA2 counteracts excessive nascent strand degradation in both BOD1L and in RAD51 impaired cells (Higgs et al., 2015; Wang et al., 2015). […] .
# [3] = test system: panel of 18 cell lines of 4 major types of cancers; test: Cell proliferation assay, panel of cancer cell lines
# [4] = test system: phosphorylated RPA2 and γH2AX in MCF7 and A549 cells; test: Phosphorylated RPA and γH2AX after CPT (western blot, immunofluorescence)
# MCF7 cells = test: Cell survival of control (shSCR) or DNA2 knockdown MCF7 cells; type: cell-based, human; conditions: 1 μM C5 for 4 days
# Excerpt: . […] The live cells were counted.
# [5] = test system: HCT116 DNA2 flox/+/+ cells; test: Synthetic lethality of C5 with FEN1, EXO1 or MRE11 siRNA knockdown; type: cell-based, human
# Method: FIGS. 13A-13C. Synergy between C5 and FEN1. […] . On day 1, HCT116 DNA2^flox/+/+ and HCT116 DNA2^flox/−/− cells (3*10^6 were plated in 10 cm dishes, respectively. On day 2, the genetic knockout of DNA2 was induced with tamoxifen as previously described (Karanja et al., 2014). Control wells contained EtOH. On day 3, the tamoxifen floxed cells, now DNA2^−/+/+ and DNA2^−/−/−, and DNA2^flox/+/+ controls were plated on 24 well plates, 20,000 to 30,000 cells per well, and incubated overnight. On day 4, wells were transfected with 20 pmole control SCR siRNA or FEN1 (FIG. 13A), EXO1 (FIG. 13B), or MRE11 (FIG. 13C) si RNAs, respectively, as previously described using GeneMute. siRNAs were obtained from Invitrogen: FEN1 (HSS103627, HSS103629, HSS176903), MRE11 (HSS142960, HSS142961, HSS181171), EXO1 (HSS113557, HSS113558, HSS113559). Cells were incubated overnight. […] . Cells were cultured for an additional 3 days, until DNA2 ^flox/+/+ cells lacking C5 were confluent. As a control for the efficacy of C5, the effect of genetic knockdown of DNA2 was tested in the presence the respective siRNA treated DNA2^−/−/− (gray curves). Cells were then washed with PBS, trypsinized and stained with tryphan blue to differentiate live cells from dead cells. Cells were counted microscopically in a Neubauer chamber. Error bars represent data from duplicate experiments. […] .
# In yeast, pathways mediated by DNA2 overlap with repair or replication by FEN1, EXO1, or MRE11 and not with others (Budd, M. E., Tong, A. H., Polaczek, P., Peng, X., Boone, C., and Campbell, J. L. (2005). A network of multi-tasking proteins at the DNA replication fork preserves genome stability. PLoS genetics 1, e61). Thus, mutants defective in FEN1, EXO1, or MRE11 are viable only in the presence of active DNA2. Double mutants deficient in DNA2 and FEN1, EXO1, or MRE11, respectively, are inviable, especially in the presence of DNA damage. This effect is called synthetic lethality. To test for synthetic lethality, deficiency in DNA2, can be induced either by genetic mutation or, if a specific inhibitor is available, by inhibition of DNA2. We reasoned that if DNA2 is the major cellular target of C5, then cells deficient in FEN1, EXO1, or MRE11 should be hypersensitive to C5, i.e. C5 should synergize with deficiency in any one of these three genes. We have now shown that this is the case in both yeast and in human cells (FIGS. 13A-13C, human cells and FIG. 14, yeast cells). […] . […] After floxing, i.e. induction of Cre nuclease with tamoxifen, this strain becomes a complete DNA2 knockout. […] .
# [6] = test system: U2OS cells carrying the GFP reporter gene; test: DSB repair reporter assays (I-SceI/GFP, HDR and SSA); type: cell-based, human
# Excerpt: To further validate C5 as a DNA2 inhibitor, we tested its effects on DNA2 functions known to be affected by knockdown or deletion of DNA2 in previous studies (Howard et al., 2015; Karanja et al., 2014; Karanja et al., 2012; Peng et al., 2012). We first determined the effect of C5 on two recombination pathways, SSA (single-strand annealing) and homologous recombination (HR), using I-SceI/GFP-based reporter assays. […] . HDR-GFP and SSA-GFP were integrated in U2OS cells (Gunn and Stark, 2012; Howard et al., 2015). […] . The cells were harvested and the GFP+ frequencies (repair frequencies) were determined by flow cytometry using a CyAn ADP Analyzer (Beckman Coulter, Inc.).
# FANCD2−/− fibroblasts = test: Cisplatin sensitivity of FANCD2−/− cells; conditions: 125 nM cisplatin, 10 μM C5, compared to cells not treated with C5
# [7] = test system: mouse embryonic stem (MES) cells; test: Cell survival of WT and DNA2 knockout MES cells; type: cell-based; conditions: 1 μM C5 for 4 days
# FEN1 = FEN1 (Homo sapiens, UniProt P39748); conditions: Liu et al EBioMedicine 6 (2016) 73-86; cited from earlier work
# Sequence of FEN1 (P39748 whole entry, species assumed): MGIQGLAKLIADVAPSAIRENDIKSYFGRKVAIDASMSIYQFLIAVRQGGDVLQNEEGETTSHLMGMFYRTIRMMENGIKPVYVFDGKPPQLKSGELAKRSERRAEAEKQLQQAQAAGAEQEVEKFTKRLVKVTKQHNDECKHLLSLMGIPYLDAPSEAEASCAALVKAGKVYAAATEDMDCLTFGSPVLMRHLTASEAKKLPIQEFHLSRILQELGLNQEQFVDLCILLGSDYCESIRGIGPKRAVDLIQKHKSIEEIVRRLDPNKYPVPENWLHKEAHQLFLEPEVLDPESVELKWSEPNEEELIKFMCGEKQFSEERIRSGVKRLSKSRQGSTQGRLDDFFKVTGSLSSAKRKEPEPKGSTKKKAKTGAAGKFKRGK
smiles,measurement,setting,value
CCCCNC(=O)c1c[nH]c2c([N+](=O)[O-])cccc2c1=O [C5-2],sensitisation of rad27 yeast to DNA damage,[1],more effective than C5
"NC(=O)c1cccc2cn(-c3ccc([C@@H]4CCCNC4)cc3)nc12 [MK4827, 2-{4-[(3S)-piperidin-3-yl]phenyl}-2H-indazole-7-carboxamide, reference compound]",IC50,"MCF7 breast cancer cells; clonogenic assay, single agent, read-out: IC50",0.8 µM
O=C(O)c1cnc2c([N+](=O)[O-])cccc2c1O [C5],percentage of restarting forks,"A549 cells; CPT-treated cells (150 nM CPT), 75% in absence of C5",50%
same,percentage of restarting forks,"A549 cells; HU-treated cells (2 mM HU), 80% in absence of C5",60%
same,replication fork restart,"A549 cells; high levels of CPT (2 μM), 10 μM C5",inhibited restart
same,nascent DNA degradation (P-RPA positive cells),"[2]; BRCA2- or BOD1L-depleted U2OS cells, 4 mM HU 5 h, 20 μM C5",suppressed
same,potency in reducing nascent DNA degradation relative to mirin,"[2]; BRCA2- or BOD1L-depleted U2OS cells, HU, 20 μM C5",comparable potency to 50 μM mirin
same,reduction in P-RPA foci,"[2]; BRCA2-deficient cells, 4 mM HU 5 h",equivalent to that observed in a DNA2 knockdown
same,number of P-RPA positive cells,"[2]; mock-depleted cells, absence of HU",neither mirin nor C5 significantly decreased
same,"combination with MK4827, survival of MCF7 cells","MCF7 breast cancer cells; C5 0 to 10 μM, MK4827 0 to 1 μM",strong synergistic effect
same,"combination with CPT, cellular lethality",MCF7 breast cancer cells; C5 1 μM with different concentrations of CPT,synergistic
same,IC50,MCF7 breast cancer cells,1.9 µM
same,combination index,"MCF7 breast cancer cells; MK4827 (1 μM) and C5 (2 μM), Compusyn",0.13
same,cytotoxicity to human cancer cells among the nuclease-inhibiting hits,[3],highest cytotoxicity
same,CPT-induced P-RPA level in γH2AX-positive cells,"[4]; 10 μM C5 for 24 hours, then 1 μM CPT for 4 hours",significantly reduced
same,γH2AX level,"[4]; C5 alone, 10 μM",background increase
same,effect on survival rate,MCF7 cells; DNA2 knockdown human cancer cells,did not further reduce the survival rate
same,survival rate compared to the untreated WT control,MCF7 cells; human cancer cells (printed MEF7),60%
same,cell killing by increasing levels of C5,[5]; scrambled siRNA,resistant
same,cell killing by increasing levels of C5,[5]; siRNA knockdown of EXO1,killed by increasing levels of C5
same,cell killing by increasing levels of C5,[5]; siRNA knockdown of FEN1,killed by increasing levels of C5
same,cell killing by increasing levels of C5,[5]; siRNA knockdown of MRE11,killed by increasing levels of C5
same,HR (homologous recombination) frequency,"[6]; 0, 10, 20, 40, 60 μM C5, 72 h",reduced by C5 in a dose-dependent manner
same,SSA (single-strand annealing) frequency,"[6]; 0, 10, 20, 40, 60 μM C5, 72 h",reduced by C5 in a dose-dependent manner
same,HR frequency compared with siRNA DNA2 knockdown,[6]; 60 μM C5,reduced to the same level as in an siRNA DNA2 knockdown
same,SSA frequency compared with siRNA DNA2 knockdown,[6]; 60 μM C5,reduced to the same level as in an siRNA DNA2 knockdown
same,survival of cisplatin-treated cells,FANCD2−/− fibroblasts,increase in survival
same,sensitisation of rad27 yeast to DNA damage,[1],synergizes with MMS and with deletion of rad27
same,effect on survival rate,[7],did not further reduce the survival rate
same,inhibition of FEN1,FEN1,not inhibited

# Source: US11780815B2, “DNA2 inhibitors for cancer treatment” (City of Hope, priority 2016, dated 2023)
